Assay results taken from patent US9115143B2, “Substituted indole derivatives as gamma secretase modulators” (Janssen Pharmaceuticals, Inc., priority 2011, dated 2015).

Assays:
[1] = test system: Aβ42; assay: In vivo efficacy B-1b: brain soluble Aβ42, MSD electrochemiluminescence multiplex; settings: mouse brain soluble fraction, dose 30 mg/kg oral dosing, 4 h after dose; untreated control set at 100; read-out: Aβ42 (% vs Ctrl)_Mean
Text: (§1) To determine whether acute administration of an Aβ42 lowering agent would reduce Aβ42 levels in vivo, non-transgenic rodents, e.g. mice or rats were used. Animals treated with the Aβ42 lowering agent were examined and compared to those untreated or treated with vehicle and brain levels of soluble Aβ42, Aβ40, Aβ38, and Aβ37 were quantitated by Meso Scale Discovery's (MSD) electrochemiluminescence detection technology. Treatment periods varied from hours (h) to days and were adjusted based on the results of the Aβ42 lowering once a time course of onset of effect could be established.
(§2) A typical protocol for measuring Aβ42 lowering in vivo is shown but it is only one of many variations that could be used to optimize the levels of detectable Aβ. For example, Aβ42 lowering compounds were formulated in 20% of Captisol® (a sulfobutyl ether of β-cyclodextrin) in water or 20% hydroxypropyl β cyclodextrin. The Aβ42 lowering agents were administered as a single oral dose or by any acceptable route of administration to overnight fasted animals. After 4 h, the animals were sacrificed and Aβ42 levels were analysed.
(§3) Blood was collected by decapitation and exsanguinations in EDTA-treated collection tubes. Blood was centrifuged at 1900 g for 10 minutes (min) at 4° C. and the plasma recovered and flash frozen for later analysis. The brain was removed from the cranium and hindbrain. The cerebellum was removed and the left and right hemisphere were separated. The left hemisphere was stored at −18° C. for quantitative analysis of test compound levels. The right hemisphere was rinsed with phosphate-buffered saline (PBS) buffer and immediately frozen on dry ice and stored at −80° C. until homogenization for biochemical assays.
(§4) Mouse brains from non-transgenic animals were resuspended in 8 volumes of 0.4% DEA (diethylamine)/50 mM NaCl containing protease inhibitors (Roche-11873580001 or 04693159001) per gram of tissue, e.g. for 0.158 g brain, add 1.264 ml of 0.4% DEA. All samples were homogenized in the FastPrep-24 system (MP Biomedicals) using lysing matrix D (MPBio #6913-100) at 6 m/s for 20 seconds. Homogenates were centrifuged at 20800×g for 5 min and supernatants collected. Supernatants were centrifuged at 221.300×g for 50 min. The resulting high speed supernatants were then transferred to fresh eppendorf tubes. Nine parts of supernatant were neutralized with 1 part 0.5 M Tris-HCl pH 6.8 and used to quantify Aβ.
(§5) To quantify the amount of Aβ42, Aβ40, Aβ38, and Aβ37 in the soluble fraction of the brain homogenates, simultaneous specific detection of Aβ42, Aβ40, Aβ38, and Aβ37 was performed using MSD's electro-chemiluminescence multiplex detection technology. In this assay purified monoclonal antibodies specific for Abeta37 (JRD/Aβ37/3), Abeta38 (J&JPRD/Aβ38/5), Abeta40 (JRF/cAβ40/28), and Abeta42 (JRF/cAβ42/26) were coated on MSD 4-plex plates. Briefly, the standards (a dilution of synthetic Aβ42, Aβ40, Aβ38, and Aβ37) were prepared in 1.5 ml Eppendorf tube in Ultraculture, with final concentrations ranging from 10000 to 0.3 pg/m. The samples and standards were co-incubated with Sulfo-tag labelled JRF/rAβ/2 antibody to the N-terminus of Aβ as detector antibody. 50 μl of conjugate/sample or conjugate/standards mixtures were then added to the antibody-coated plate. The plate was allowed to incubate overnight at 4° C. in order to allow formation of the antibody-amyloid complex. Following this incubation and subsequent wash steps the assay was finished by adding read buffer according to the manufacturer's instructions (Meso Scale Discovery, Gaitherburg, Md.).
(§6) The SULFO-TAG emits light upon electrochemical stimulation initiated at the electrode. MSD Sector instrument SI6000 was used for signal read-out.
In this model a Aβ42 lowering compared to untreated animals would be advantageous, in particular a Aβ42 lowering with at least 10%, more in particular a Aβ42 lowering with at least 20%. […]

[2] = test system: Aβ38; assay: In vivo efficacy B-2b: brain soluble Aβ38, MSD electrochemiluminescence multiplex; settings: mouse brain soluble fraction, dose 30 mg/kg oral dosing, 4 h after dose; untreated control set at 100; read-out: Aβ38 (% vs Ctrl)_Mean
Text: as §1, with “Aβ38 increasing agents” for “Aβ42 lowering agent”, “increase Aβ38” for “reduce Aβ42”, “MSD” for “Meso Scale Discovery's (MSD)”, “Aβ38 increase” for “Aβ42 lowering”
as §2, with “measuring Aβ38 increase” for “measuring Aβ42 lowering”, “example, Aβ38 increasing agents” for “example, Aβ42 lowering compounds”, “The Aβ38 increasing” for “The Aβ42 lowering”, “and Aβ38” for “and Aβ42”
as §3, §4, §5, §6
In this model a Aβ38 increase compared to untreated animals would be advantageous, in particular a Aβ38 increase with at least 10%, more in particular a Aβ38 increase with at least 20%. […]

[3] = test system: Aβ40; assay: In vivo efficacy B-1b/B-2b: brain soluble Aβ40, MSD electrochemiluminescence multiplex; settings: mouse brain soluble fraction, dose 30 mg/kg oral dosing, 4 h after dose; untreated control set at 100; read-out: Aβ40 (% vs Ctrl)_Mean
Text: as §1, §2, §3, §4, §5, §6
The results are shown in Table 5 (dose 30 mg/kg oral dosing) (value for untreated animals as control (Ctrl) was set at 100): […]

SMILES | response vs control in vivo at 30 mg/kg [1] [%] | response vs control in vivo at 30 mg/kg [2] [%] | response vs control in vivo at 30 mg/kg [3] [%]
Cc1cn(-c2ccc3[nH]c(-c4nc5n(n4)CCCC5c4ccc(F)cc4C)nc3c2)cn1 (stereo not drawn) [Compound 176, 8-(4-fluoro-2-methylphenyl)-5,6,7,8-tetrahydro-2-[5-(4-methyl-1H-imidazol-1-yl)-1H-benzimidazol-2-yl]-[1,2,4]triazolo[1,5-a]pyridine] | 103 | 126 | 111
COc1c(C#N)ccc2[nH]c(-c3cn4c(n3)C(c3ccc(F)cc3C)OCC4)cc12 (stereo not drawn) [Compound 47, 2-[8-(4-fluoro-2-methylphenyl)-5,6-dihydro-8H-imidazo[2,1-c][1,4]oxazin-2-yl]-4-methoxy-1H-indole-5-carbonitrile] | 55 | 222 | 56
COc1c(C#N)ccc2[nH]c(-c3nc4n(n3)CCOC4c3c(F)cccc3Cl)cc12 (single isomer, unassigned) [Compound 117, 2-[8-(2-chloro-6-fluorophenyl)-5,6-dihydro-8H-[1,2,4]triazolo[5,1-c][1,4]oxazin-2-yl]-4-methoxy-1H-indole-5-carbonitrile] | 79 | 147 | 112
COc1c(C#N)ccc2[nH]c(-c3nc4n(n3)CCOC4c3ccccc3C(F)(F)F)cc12 (stereo not drawn) [Compound 55, 2-[5,6-dihydro-8-[2-(trifluoromethyl)phenyl]-8H-[1,2,4]triazolo[5,1-c][1,4]oxazin-2-yl]-4-methoxy-1H-indole-5-carbonitrile] | 68 | 148 | 94
